Assay results: US11667604B2, “Phenyl containing compound, intermediate thereof, preparation method therefor and application thereof” (SHANGHAI MODERN PHARMACEUTICAL ENGINEERING RESEARCH CENTER …, priority 2019, dated 2023)
Where a name gives a salt, the structure may show the parent alone.

Assay: Stability testing of carriers in solid form, residual amount determined by HPLC, and appearance
Type: physicochemical
Details: for Appearance: storage condition not specified
Method: The carrier of embodiment 1 was placed in solid form under normal temperature and normal light, normal temperature and away from light, 4° C. away from light and −18° C. away from light, respectively, and the residual amount of the carrier was measured after being placed for 1d, 3d, 7d, 30d, 60d, 90d and 120d, respectively, and the residual amount was determined by HPLC.
The sodium salt of N-(all-trans-retinoyl)-L-cysteic acid methyl ester was placed in solid form at normal temperature and normal light, at normal temperature and away from light, at 4° C. away from light and at −18° C. away from light respectively (other conditions are the same as those in embodiment 4), and the appearance and residual amount were tested after being placed for 1d, 3d, 7d and 30d, respectively, wherein the residual amount was determined by HPLC.

- Appearance (0 d): Yellow powder
- residual amount (4° C. away from light, 0 d): 99.54%
- residual amount (4° C. away from light, 3 d): 93.76%
- residual amount (4° C. away from light, 7 d): 89.09%
- residual amount (4° C. away from light, 30 d): 79.69%
- Appearance (3 d): Orange
- Appearance (7 d): Brown viscous
- Appearance (30 d): Dark brown viscous
- residual amount (normal temperature and away from light, 0 d): 99.54%
- residual amount (normal temperature and away from light, 3 d): 88.91%
- residual amount (normal temperature and away from light, 7 d): 78.62%
- residual amount (normal temperature and normal light, 0 d): 99.54%
- residual amount (normal temperature and normal light, 3 d): 83.71%
- residual amount (normal temperature and normal light, 7 d): 64.32%
- residual amount (−18° C. away from light, 0 d): 99.54%
- residual amount (−18° C. away from light, 3 d): 96.16%
- residual amount (−18° C. away from light, 7 d): 94.17%
- residual amount (−18° C. away from light, 30 d): 89.98%
Structure (SMILES): COC(=O)[C@H](CS(=O)(=O)O)NC(=O)/C=C(C)/C=C/C=C(C)/C=C/C1=C(C)CCCC1(C)C [sodium salt of N-(all-trans-retinoyl)-L-cysteic acid methyl ester]
